Legend:
zrt1 strain = assay: Cell-associated zinc, zrt1 strain; type: cell-based, Saccharomyces cerevisiae
Method: Zinc uptake assays were performed as described previously for iron uptake (Eide et al. (1992) J. Biol. Chem. 267:20774-20781) except that ^65ZnCl2 (Amersham) and LZM-EDTA were substituted for ^59FeCI3 and LIM-EDTA, respectively. Cells were incubated for 5 minutes in LZM-EDTA plus the indicated concentration of ^65Zn, collected on glass fiber filters (Schleicher and Schuell), washed with 10 ml ice-cold SSW (1 mM EDTA, 20 mM trisodium citrate, 1 mM KH2PO4, 1 mM CaCl2, 5 mM MgSO4, 1 mM NaCl pH 4.2), and cell-associated radioactivity was measured by liquid scintillation counting. […] Michaelis-Menten kinetic values were determined using […] software (Intellikinetics, Princeton, N.J.). […] The statistical significance of the differences of values relative to controls was determined with one-way analysis of variance (ANOVA) followed by a Dunnett multiple comparison test. β-galactosidase activity was assayed in cells harvested at an OD600 of 0.5-2.0 as described by Guarente (Guarente, L. (1983) Methods Enzymol. 101:181-191) and activity is expressed as the change in absorbance at 420 nm×1000 divided by (min×ml of culture used×OD600 of the culture). Cell-associated zinc was measured in parallel cultures supplemented with tracer amounts of ^65Zn (10 μM) and nonradioactive zinc to the indicated final concentration. […]

wild type (DY1457) cells = assay: Zinc-limited growth, wild type yeast; type: cell-based, Saccharomyces cerevisiae; details: LZM, 16 hours
Method: Strains used were DY1457 (MATα ade6 can1 his3 leu2 trp1 ura3) and ZHY1 (MaTα ade6 can1 his3 leu2 trp1 ura3 zrt1:: LEU2). Yeast were grown in standard culture media (SD, YPD) (Eide, D., Davis-Kaplan S., Jordan, I., Sipe, D., and Kaplan, J. (199: 2) J. Biol. Chem. 267, 20774-20781) supplemented with necessary auxotrophic requirements and either 2% glucose or 2% galactose. A zinc-limiting medium (LZM) was prepared in the same manner as LIM (Eide and Guarenete (1992) J. Gen. Microbiol. 138:347-354) except that […]. Cell number in liquid cultures was determined by measuring the optical density of cell suspensions at 600 nm (A600) and converting to cell number with a standard curve.
Strains used were DY1457 (MATα ade6 can1 his3 leu2 trp1 ura3), ZHY1 (AMTα ade6 can1 his3 leu2 trp1 ura3 zrt1::LEU2), ZHY2 (MATα ade6 can1 his3 leu2 trp1 ura3 zrt2::HIS3), and ZHY3 (MATα ade6 can1 his3 leu2 trp1 ura3 zrt1::LEU2 zrt2::HIS3). […] The concentrations of free (i.e. unchelated) zinc were calculated using MAXCHELATOR software (Chris Patton, Stanford University). Cell number in liquid cultures was determined by measuring the absorbance of cell suspensions at 600 nm (OD600) and converting to cell number with a standard curve. […]

SMILES: [Zn+2] [zinc]
- cell-associated zinc (zrt1 strain; 10 μM total zinc): 133±12 pmol/10^6 cells
- cell-associated zinc (zrt1 strain; 1000 μM total zinc): 168±14 pmol/10^6 cells
- calculated free zinc [Zn]F sufficient for maximum growth yield (wild type (DY1457) cells): ~6 pM
- total zinc sufficient for maximum number of cell divisions (wild type (DY1457) cells): 10 µM

Reference: patent US6590140B1, “Metal-regulated transporters and uses therefor” (Trustees of Dartmouth College, priority 1996, dated 2003)
